Results as given in ChEMBL document CHEMBL1157653, “Gentisides A and B, two new neuritogenic compounds from the traditional Chinese medicine Gentiana rigescens Franch” (Bioorg Med Chem, 2010).
Calls of active or inactive are those of the source. The rule behind the calls is not given here.

What was measured:
PC-12 [1] = assay: Induction of neuritogenic activity in rat PC12 cells assessed as long neurite outgrowths after 48 hrs; type: functional, cell-based
PC-12 [2] = assay: Induction of neuritogenic activity in rat PC12 cells assessed as long neurite outgrowths at 30 uM after 48 hrs; type: functional
PC-12 [3] = assay: Induction of neuritogenic activity in rat PC12 cells assessed as appearance of long multipolar and bipolar neurite outgrowths at 30 uM after 48 hrs by phase contrast microscopy; type: functional, cell-based
PC-12 [4] = assay: Induction of neuritogenic activity in rat PC12 cells assessed as long neurite outgrowths at 100 uM after 48 hrs; type: functional, cell-based
PC-12 [5] = assay: Cytotoxicity against rat PC12 cells at 1 to 30 uM after 48 hrs; type: cell-based; conditions: pc-12, 48 h
PC-12 [6] = assay: Potentiation of NGF-induced neuritogenic activity in rat PC12 cells assessed as neurite outgrowths at 1 to 30 uM after 48 hrs; type: functional, cell-based
PC-12 [7] = assay: Cytotoxicity against rat PC12 cells at 100 uM after 48 hrs; type: cell-based; conditions: pc-12, 48 h
PC-12 [8] = assay: Induction of neuritogenic activity in rat PC12 cells assessed as long neurite outgrowths at 1 to 30 uM after 48 hrs; type: functional, cell-based

Row | Compound | Activity (PC-12 [1]) | Activity (PC-12 [2]) | Activity (PC-12 [3]) | Activity (PC-12 [4]) | Activity (PC-12 [5]) | Activity (PC-12 [6]) | Activity (PC-12 [7]) | Activity (PC-12 [8])
1 | CC(C)CCCCCCCCCCCCCCCCCCCOC(=O)c1cccc(O)c1O [GENTISIDE A] | Dose-dependent effect | 82% | Active | Active | Non-toxic | inactive | Toxic | –
2 | O=C(O)c1cccc(O)c1O | – | – | – | – | – | – | – | inactive
3 | CC[C@H](C)CCCCCCCCCCCCCCCCCCCOC(=O)c1cccc(O)c1O [GENTISIDE B] | Dose-dependent effect | 87% | Active | Active | Non-toxic | inactive | Toxic | –
